Assay results from the supplement of paper PMC11061612.

What was measured:
Experiment in all cases: Bliss excess, mean over the matrix (fraction); higher = more synergy
SK-N-SH (Neuroblastoma) = tested on: SK-N-SH (Neuroblastoma)
Outline: (§1)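 Cell lines grown in DMEM/F12 or RPMI with 10% FBS were plated in 1536-well plates and held 24 hours at 37°C, 5% CO2 before 72 hours of exposure to two-drug dose matrices, with DMSO typically at 0.2%. CellTiter-Glo 2.0 luminescence gave viability, which was converted to inhibition. Vehicle wells were set to 0 and blank wells to 1. Combination Emax is the second-highest inhibition in the matrix, and Bliss excess is the observed combination effect minus the expected EA + EB − EA·EB, where EA and EB are the single-agent effects.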

[1] = tested on: NCI-H596 (Other Solid Carcinomas)
Outline: as §1

[2] = tested on: BxPC-3 (Pancreatic Carcinoma)
Outline: as §1

[3] = tested on: NCI-H1341 (Small Cell Lung Carcinoma)
Outline: as §1

WM35 (Melanoma) = tested on: WM35 (Melanoma)
Outline: as §1

[4] = tested on: Raji (Burkitt's Lymphoma)
Outline: as §1

[5] = tested on: NCI-H3118 (Head and Neck Carcinoma)
Outline: as §1

[6] = tested on: PL4 (Pancreatic Carcinoma)
Outline: as §1

[7] = tested on: SCC-4 (Oral Cavity Carcinoma)
Outline: as §1

[8] = tested on: IA-LM (Non-Small Cell Lung Carcinoma)
Outline: as §1

[9] = tested on: DBTRG-05MG (Glioblastoma)
Outline: as §1

[10] = tested on: CL-11 (Colorectal Carcinoma)
Outline: as §1

[11] = tested on: P32-ISH (Burkitt's Lymphoma)
Outline: as §1

[12] = tested on: SNU-423 (Hepatocellular Carcinoma)
Outline: as §1

[13] = tested on: MONO-MAC-6 (Acute Myeloid Leukemia)
Outline: as §1

[14] = tested on: SNU-C2B (Colorectal Carcinoma)
Outline: as §1

AM-38 (Glioblastoma) = tested on: AM-38 (Glioblastoma)
Outline: as §1

[15] = tested on: TUR (Acute Myeloid Leukemia)
Outline: as §1

[16] = tested on: CPC-N (Small Cell Lung Carcinoma)
Outline: as §1

[17] = tested on: PA-TU-8988T (Pancreatic Carcinoma)
Outline: as §1

Structure (SMILES) | Bliss excess (SK-N-SH (Neuroblastoma)) | Bliss excess [1] | Bliss excess [2] | Bliss excess [3] | Bliss excess (WM35 (Melanoma)) | Bliss excess [4] | Bliss excess [5] | Bliss excess [6] | Bliss excess [7] | Bliss excess [8] | Bliss excess [9] | Bliss excess [10] | Bliss excess [11] | Bliss excess [12] | Bliss excess [13] | Bliss excess [14] | Bliss excess (AM-38 (Glioblastoma)) | Bliss excess [15] | Bliss excess [16] | Bliss excess [17]
CCN(CCO)CCCOc1ccc2c(Nc3cc(CC(=O)Nc4cccc(F)c4)[nH]n3)ncnc2c1 [AZD2811] + C=CCn1c(=O)c2cnc(Nc3ccc(N4CCN(C)CC4)cc3)nc2n1-c1cccc(C(C)(C)O)n1 [AZD1775] (first compound max 1 µM, partner max 1 µM) | -0.0544 | 0.0114 | -0.0099 | 0.0747 | -0.0098 | 0.0278 | -0.0798 | -0.0002 | -0.0024 | 0.0064 | -0.0402 | 0.0034 | -0.0336 | -0.01 | 0.0263 | -0.0602 | 0.0107 | 0.117 | -0.0239 | 0.0311
CCN(CCO)CCCOc1ccc2c(Nc3cc(CC(=O)Nc4cccc(F)c4)[nH]n3)ncnc2c1 [AZD2811] + C[C@@H]1COCCN1C2=NC(=NC(=C2)C3(CC3)[S@](=N)(=O)C)C4=C5C=CNC5=NC=C4 [AZD6738] (first compound max 1 µM, 7x7, partner max 10 µM) | -0.0358 | -0.0056 | -0.0352 | 0.0028 | -0.0306 | -0.0562 | -0.0682 | -0.0171 | -0.0707 | -0.0264 | -0.0657 | -0.0488 | -0.0153 | -0.0386 | -0.0262 | -0.0581 | -0.0202 | 0.019 | -0.0794 | 0.0002
CCN(CCO)CCCOc1ccc2c(Nc3cc(CC(=O)Nc4cccc(F)c4)[nH]n3)ncnc2c1 [AZD2811] + O=C(c1cc(Cc2n[nH]c(=O)c3ccccc23)ccc1F)N1CCN(C(=O)C2CC2)CC1 [Olaparib] (first compound max 1 µM, 7x7, partner max 10 µM) | -0.0701 | -0.0372 | 0.0032 | 0.0125 | 0.0069 | 0.0005 | 0.0075 | -0.0043 | -0.0447 | -0.031 | -0.0179 | 0.0084 | -0.035 | -0.0138 | 0.0056 | -0.014 | 0.0471 | 0.0637 | -0.0238 | 0.0228
COc1nnc2ccc(N3CCC(c4ccc(OCCN5CCN(C)C(=O)[C@H]5C)cc4)CC3)nn12 [AZD5153] + CN(CC[C@H](CSC1=CC=CC=C1)NC2=C(C=C(C=C2)S(=O)(=O)NC(=O)C3=CC=C(C=C3)N4CCC(CC4)[C@H](C5=CC=CC=C5C6=CC=C(C=C6)Cl)O)S(=O)(=O)C(F)(F)F)CCO [AZD4320] (first compound max 1 µM, 7x7, partner max 1 µM) | – | 0.0028 | – | 0.0454 | 0.0983 | 0.0146 | – | 0.0732 | – | – | -0.0517 | 0.0136 | -0.0595 | – | – | 0.0215 | 0.103 | 0.0533 | – | 0.048
Cc1c2c(nn1C)CSCc1cc(n(C)n1)CSc1cc(c3ccccc3c1)OCCCc1c(C(=O)O)n(C)c3c-2c(Cl)ccc13 [AZD5991] + C[C@@H](Nc1cc(F)cc(F)c1)c1cc(C(=O)N(C)C)cc2c(=O)cc(N3CCOCC3)oc12 [AZD8186] (first compound max 1 µM, 7x7, partner max 3 µM) | -0.0094 | – | -0.0059 | 0.0352 | 0.0064 | 0.0164 | -0.0161 | 0.0356 | 0.0116 | -0.0274 | 0.0008 | -0.0377 | 0.0273 | -0.0326 | 0.0143 | -0.0337 | -0.0352 | 0.0047 | -0.0085 | 0.0295
CC(=O)c1c(C)c2cnc(Nc3ccc(N4CCNCC4)cn3)nc2n(C2CCCC2)c1=O [Palbociclib] + CN(CC[C@H](CSC1=CC=CC=C1)NC2=C(C=C(C=C2)S(=O)(=O)NC(=O)C3=CC=C(C=C3)N4CCC(CC4)[C@H](C5=CC=CC=C5C6=CC=C(C=C6)Cl)O)S(=O)(=O)C(F)(F)F)CCO [AZD4320] (first compound max 10 µM, 7x7, partner max 1 µM) | – | -0.0578 | – | -0.008 | -0.114 | -0.0122 | – | -0.0826 | – | – | -0.119 | 0.0021 | 0.0075 | – | – | -0.0867 | -0.0234 | -0.0635 | – | -0.0213
CCc1c2c(nc3ccc(O)cc13)-c1cc3c(c(=O)n1C2)COC(=O)[C@]3(O)CC [SN-38] + O=C(c1cc(Cc2n[nH]c(=O)c3ccccc23)ccc1F)N1CCN(C(=O)C2CC2)CC1 [Olaparib] (first compound max 0.3 µM, 7x7, partner max 10 µM) | 0.0739 | – | -0.005 | 0.0698 | 0.0733 | 0.0342 | 0.106 | 0.0386 | 0.0071 | 0.053 | 0.0015 | 0.0626 | 0.0645 | -0.0025 | 0.141 | 0.0556 | -0.0023 | 0.0429 | 0.105 | 0.023
C[C@@H](c1ccc2nccn2c1)n1nnc2ncc(-c3cnn(C)c3)nc21 [Savolitinib] + CN(CC[C@H](CSC1=CC=CC=C1)NC2=C(C=C(C=C2)S(=O)(=O)NC(=O)C3=CC=C(C=C3)N4CCC(CC4)[C@H](C5=CC=CC=C5C6=CC=C(C=C6)Cl)O)S(=O)(=O)C(F)(F)F)CCO [AZD4320] (first compound max 1 µM, 7x7, partner max 1 µM) | – | -0.018 | – | 0.0128 | -0.051 | -0.0168 | – | -0.0801 | – | – | -0.0262 | -0.0216 | -0.022 | – | – | -0.101 | -0.0474 | -0.0188 | – | -0.0581
